Marks after values point to notes of the source that are not given here.
How the values were obtained:
[1] = system: Phenion® Full-Thickness (FT) Skin Model; experiment: Lipidomic profile of skin model after topical treatment (LC-MS); type: cell-based, human
[2] = MVL*H2O solubility in water (equilibrium DS content); type: physicochemical; details: calculated to purity 100
Experimental: Solubility is one property to characterize a crystalline compound. Crystallization is possible only above solubility concentration in supersaturated syrups. Solubility determines minimal DS concentration for the crystallization at given temperatures. The solubility is determined by standard methods like analyzing the equilibrium concentration from crystal suspension.
Equilibrium DS contents were measured and calculated between 0-20° C. range (Table 14).

[3] = system: reconstructed human epidermis (RHE); experiment: Caffeine diffusion test ([14C]-caffeine diffusion, barrier function); type: cell-based; details: for Barrier function (% control) / [14C]-caffeine diffusion, % control / [14C]-caffeine diffusion, Mean (cpm): systemic, 7 days
Experimental: A test referred to as “caffeine diffusion test” was performed, which consists of the measurement of the effect of compounds mevalonolactone (MVL) on the skin barrier reinforcement. It is one method to measure skin barrier function (strength) as when the skin barrier has been strengthened, the amount of penetrating tracer molecules decreases (i.e. if skin is damaged more, the easier the tracer penetrates the skin). In this study, the effect of mevalonolactone, was assessed on [^14C]-caffeine diffusion through reconstructed human epidermis (RHE) under basal condition, in order to evaluate the skin barrier function. Caffeine diffusion is inversely proportional to barrier function. RHE (RHE, 0-day-old, Bioalternatives reference: EPI-Ba, batch n° 01015-515) were cultured under the following conditions: 37° C., 5% CO2, and the culture media was the Bioaltematives maintenance medium. The tested MVL concentration were 0.001%, 0.005% and 0.01% by weight of assay medium, in systemic way (added to the culture media).
RHE at day 0 were placed at the air/liquid interface in culture medium containing or not (control) the test compounds, their association or the reference (vitamin C at 200 μg/ml) (systemic application). RHE were then, incubated for 7 days with treatment renewals at day 3 and day 5. All experimental conditions were performed in n=3.
At the end of incubation (D7), radioactive caffeine ([^14C]-caffeine) was applied onto the surface of each epidermis. The radioactivity contained in subnatants was measured by liquid scintillation according to the following kinetic: 30 minutes, 1 and 2 hours.
Raw data were analyzed using Microsoft Excel® software and GraphPad PRISM® software. The inter-group comparisons were performed by an unpaired Student's t-test. The statistical analysis can be interpreted if n≥5, however for n<5 the statistical values are for information only. Formulas used in this report:
Standard error of the mean: sem=Sd/√n; Barrier function: […]

[4] = system: female Caucasian subjects with dry skin; experiment: Skin transepidermal water loss (TEWL) after topical cream application (skin barrier function); type: in vivo, human; details: for Δ TEWL MVL (MVL cream zone − placebo cream zone): normalized to control and placebo, 1% MVL cream pH 5.5; for Δ TEWL MVL (Dx-D0): normalized to control, placebo and baseline D0
Experimental: Mevalonolactone was obtained and purified as described herein and formulated in a standard cosmetic base, at 1% of total composition by weight, resulting in cosmetic a composition (such as but not limited to a cosmetic cream). […] The base cream formula can be any formula well known to one skilled in the art.
Two separated studies were performed. Study 1 consisted of measuring the skin transepidermal water loss after topical application of the cosmetic creams (a cream with 1% MVL of total composition by weight called “MVL cream” and the control cream which was the same cream without MVL called “placebo”) formulated at pH=5.5, the skin physiological pH.
The cosmetic formulations comprising MVL as the active ingredient and the placebo treatment were applied to 6 female Caucasian subjects with dry skin (electrical capacitance<50 A.U.) by topical application.
For 2 weeks, each subject applied the MVL containing formulation and placebo formulation according to randomization. twice a day (in the morning and in the evening), under normal conditions of use (on clean skin, by slight massage until complete penetration), on delimited zones on their forearms.
Evaluation of the efficacy of the treatment was conducted by measuring the evolution of the transepidermal water loss of the skin induced by the cosmetic compositions on the skin. Water loss of the skin was determined by measurement of Trans Epidermal Water Loss (T.E.W.L. g/m^2/h) which is a non-invasive method to assess the integrity of the stratum corneum barrier function, by quantifying the water exchanges between the skin and the environment (Loden M. et al., 1992, British J of Dermatol 1992; 126: 137-141). Damage of the stratum corneum results in an increase in the T.E.W.L., leading to a more pervious skin. This method enables to assess and compare the protective effect of cosmetic investigational compositions on the cutaneous barrier between themselves, after repeated applications. and in comparison, with a control area (non-treated) and with values obtained before any products application.
In this study, the TEWL (g/m^2/h) was assessed at 5 different time points (Day 0 (baseline before product application). […]

[5] = 13% MVL solution in DPBS, 20 μl topical, 24 hours, vs control without MVL
[6] = MVL treated skin tissue, 24 hours

C[C@@](O)(CCO)CC(=O)O [MVA, (3R)-3,5-Dihydroxy-3-methylpentanoic acid]
cholesterol amount (in words) ([1]; MVA treated skin model): stay stable
cholesterol/cholesterol sulfate ratio (in words) ([1]; topical MVA, exact same test condition as Example 26): decrease
MVA treatment effect: Ratio Cholesterol/Cholesterol sulfate ([1]; topical MVA, exact same test condition as Example 26, p = 0.088): −

CC1(O)CCOC(=O)C1.O (stereo not shown) [MVL* H2O, Mevalonolactone monohydrate]
solubility ([2]; 0 °C): 43.9 % DS
solubility ([2]; 4.8 °C): 52.3 % DS
solubility ([2]; 9.8 °C): 61.2 % DS
solubility ([2]; 15.0 °C): 70.6 % DS
solubility ([2]; 20.0 °C): 79.7 % DS

C[C@@]1(O)CCOC(=O)C1 [MVL, (R)-3-Hydroxy-3-methyl-δ-valerolactone]
MVL treatment effect: CE-Cholesterol Esters [1, 5]: +
MVL treatment effect: CL-CardioLipin* [1, 5]: −
MVL treatment effect: DAG-Diacylglycerol [1, 5]: −
MVL treatment effect: HexCer-Hexosylceramide* [1, 5]: +
MVL treatment effect: LPE* [1, 5]: −
MVL treatment effect: LPE-0 [1, 5]: −
MVL treatment effect: LPG-lyso-PG [1, 5]: −
MVL treatment effect: PA-Phosphatidate (PA and LPA) [1, 5]: +
MVL treatment effect: PC Phosphatidylcholine (PC 15:1;0_16:0;0*) [1, 5]: +
MVL treatment effect: PC-O- Phosphatidylcholine-ether (PC-O 16:1;0/18:2;0, plasmalogen) [1, 5]: +
MVL treatment effect: PE (species listed, *) [1, 5]: −
MVL treatment effect: PE O-16:1;0/18:1;0* [1, 5]: −
MVL treatment effect: PI-Phosphatidylinositol [1, 5]: −
MVL treatment effect: Phosphatidylglycerol (PG species listed, *) [1, 5]: −
MVL treatment effect: TAG-Triacylglycerol (TAG 47:2;0) [1, 5]: +
Cholesterol level (in words) [1, 6]: unchanged
PG/CL versus control samples (in words) [1, 6]: significant decrease
ceramides level (in words) [1, 6]: unchanged
cholesterol esters (CE) versus control samples (in words) [1, 6]: significant increase
diacylglycerol (DAG) versus control samples (in words) [1, 6]: significant decrease
hexosylceramide (HexCer) versus control samples (in words) [1, 6]: significant increase
phosphatidate (PA) versus control samples (in words) [1, 6]: significant increase
phosphatidylcholine-ether (PC-O) versus control samples (in words) [1, 6]: significant increase
phosphatidylcholines (PC) versus control samples (in words) [1, 6]: significant increase
phosphatidylethanolamine-ethers (LPE, LPE-O, PE-O) versus control samples (in words) [1, 6]: significant decrease
phosphatidylinositol versus control samples (in words) [1, 6]: significant decrease
phosphatidylserine (PS) level (in words) [1, 6]: unchanged
ratio cholesterol/chol sulfate (in words) [1, 6]: unchanged
sphingomyelin (SM) level (in words) [1, 6]: unchanged
triacylglycerol (TAG) versus control samples (in words) [1, 6]: significant increase
Barrier function (% control) ([3]; 0.001%, 30 min): 128 % control
[14C]-caffeine diffusion, % control ([3]; 0.001%, 30 min): 77 % control
[14C]-caffeine diffusion, Mean (cpm) ([3]; 0.001%, 30 min): 14907 cpm
Barrier function (% control) ([3]; 0.001%, 1 hour): 106 % control
[14C]-caffeine diffusion, % control ([3]; 0.001%, 1 hour): 94 % control
[14C]-caffeine diffusion, Mean (cpm) ([3]; 0.001%, 1 hour): 48423 cpm
Barrier function (% control) ([3]; 0.001%, 2 hours): 99 % control
[14C]-caffeine diffusion, % control ([3]; 0.001%, 2 hours): 101 % control
[14C]-caffeine diffusion, Mean (cpm) ([3]; 0.001%, 2 hours): 117165 cpm
Barrier function (% control) ([3]; 0.005%, 30 min): 113 % control
[14C]-caffeine diffusion, % control ([3]; 0.005%, 30 min): 87 % control
[14C]-caffeine diffusion, Mean (cpm) ([3]; 0.005%, 30 min): 16927 cpm
Barrier function (% control) ([3]; 0.005%, 1 hour): 93 % control
[14C]-caffeine diffusion, % control ([3]; 0.005%, 1 hour): 107 % control
[14C]-caffeine diffusion, Mean (cpm) ([3]; 0.005%, 1 hour): 55034 cpm
Barrier function (% control) ([3]; 0.005%, 2 hours): 95 % control
[14C]-caffeine diffusion, % control ([3]; 0.005%, 2 hours): 106 % control
[14C]-caffeine diffusion, Mean (cpm) ([3]; 0.005%, 2 hours): 122324 cpm
Barrier function (% control) ([3]; 0.01%, 30 min): 97 % control
[14C]-caffeine diffusion, % control ([3]; 0.01%, 30 min): 102 % control
[14C]-caffeine diffusion, Mean (cpm) ([3]; 0.01%, 30 min): 19700 cpm
Barrier function (% control) ([3]; 0.01%, 1 hour): 96 % control
[14C]-caffeine diffusion, % control ([3]; 0.01%, 1 hour): 104 % control
[14C]-caffeine diffusion, Mean (cpm) ([3]; 0.01%, 1 hour): 53545 cpm
Barrier function (% control) ([3]; 0.01%, 2 hours): 99 % control
[14C]-caffeine diffusion, % control ([3]; 0.01%, 2 hours): 101 % control
[14C]-caffeine diffusion, Mean (cpm) ([3]; 0.01%, 2 hours): 116509 cpm
Δ TEWL MVL (MVL cream zone − placebo cream zone) ([4]; D0): 2.06 g/m²/h
Δ TEWL MVL (Dx-D0) ([4]; D1-D0): −0.27
Δ TEWL MVL (MVL cream zone − placebo cream zone) ([4]; D1): 1.79 g/m²/h
Δ TEWL MVL (Dx-D0) ([4]; D3-D0): −0.74
Δ TEWL MVL (MVL cream zone − placebo cream zone) ([4]; D3): 1.32 g/m²/h
Δ TEWL MVL (Dx-D0) ([4]; D7-D0): −1.11
Δ TEWL MVL (MVL cream zone − placebo cream zone) ([4]; D7): 0.95 g/m²/h
Δ TEWL MVL (Dx-D0) ([4]; D15-D0): −1.04
Δ TEWL MVL (MVL cream zone − placebo cream zone) ([4]; D15): 1.02 g/m²/h
skin trans epidermal water loss (in words) ([4]; topically applied, after 2 weeks of repeated application): decreases the skin trans epidermal water loss

O=C1O[C@H]([C@@H](O)CO)C(O)=C1O [Vitamin C, reference compound]
caffeine diffusion through RHE (in words) ([3]; 200 μg/ml, systemic treatment): decreased significantly
Barrier function (% control) ([3]; 200 microg/ml, 30 min): 171** % control
[14C]-caffeine diffusion, % control ([3]; 200 microg/ml, 30 min): 58 % control
[14C]-caffeine diffusion, Mean (cpm) ([3]; 200 microg/ml, 30 min): 11133 cpm
Barrier function (% control) ([3]; 200 microg/ml, 1 hour): 148** % control
[14C]-caffeine diffusion, % control ([3]; 200 microg/ml, 1 hour): 68 % control
[14C]-caffeine diffusion, Mean (cpm) ([3]; 200 microg/ml, 1 hour): 34839 cpm
Barrier function (% control) ([3]; 200 microg/ml, 2 hours): 128** % control
[14C]-caffeine diffusion, % control ([3]; 200 microg/ml, 2 hours): 79 % control
[14C]-caffeine diffusion, Mean (cpm) ([3]; 200 microg/ml, 2 hours): 90717 cpm
